Patent US10508109B2 (priority 2015, dated 2019)
Where a name gives a salt, the structure may show the parent alone. Read-outs that look alike come from different tables or passages of the source.

Legend:
A549 = experiment: Cell-based assay, anti-proliferative activity (Cell Counting Kit-8, 72 hours); settings: Homo sapiens, read-out: A549 IC50
In short: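 Cells were seeded in 96-well plates and exposed to candidate inhibitors. Cellular growth was then determined with the colorimetric kit, and IC50 values were calculated from the growth data.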

SUV39H2 = SUV39H2 (Homo sapiens (Human), UniProt Q9H5I1); experiment: biochemical; assay type: biochemical; settings: 3H-SAM 100 nM, H3 Histone Peptide 350 nM, room temperature 3 hours
Sequence of SUV39H2 (Q9H5I1 whole entry): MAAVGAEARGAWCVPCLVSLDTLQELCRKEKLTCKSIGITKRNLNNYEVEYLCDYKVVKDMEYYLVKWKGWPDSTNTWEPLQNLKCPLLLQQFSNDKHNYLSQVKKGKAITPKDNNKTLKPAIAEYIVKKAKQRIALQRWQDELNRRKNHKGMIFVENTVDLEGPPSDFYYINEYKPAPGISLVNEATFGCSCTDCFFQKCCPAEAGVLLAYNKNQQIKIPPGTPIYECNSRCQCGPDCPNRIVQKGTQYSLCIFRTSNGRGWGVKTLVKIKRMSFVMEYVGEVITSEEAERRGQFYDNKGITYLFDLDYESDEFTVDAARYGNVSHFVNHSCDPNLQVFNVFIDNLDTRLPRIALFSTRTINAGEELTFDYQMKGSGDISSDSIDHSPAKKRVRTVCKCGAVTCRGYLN
Method: Assay buffer (4 μL) was added into all the wells, including test compound and control wells (except for Sinefungin control wells), using the Multidrop Combi. The plate was centrifuged at 1000 rpm for 1 min. […] SUV39H2 (8 μL, final conc: optimized for each lot of the enzyme based on specific activity) was added by using the Multidrop Combi. The assay plate was centrifuged at 1000 rpm for 1 min. Assay buffer was used as background control, and incubated at room temperature for 3 hours. The reaction was stopped with 20 μL of 2.5 mg/mL Streptavidin SPA beads (final conc. 50 μg/well) in buffer using the Multidrop Combi and centrifuged for 1 min. The plate was loaded into the Trilux-Microbeta counter and a delayed read of 10 hours was made. The radioactive signal was measured at 1 min/well. Sinefungin and the internal standard compound were used as tool compounds to determine assay performance.
• The following calculations were made using the obtained CPM raw data: Software used: XLFit from IDBS.
For each test plate the following results were calculated: • Average, Standard Deviation, and % CV of Background Controls • Average, Standard Deviation, and % CV of Positive Controls • Z′ value of the plate • IC50 values of standard and test compounds (in nM) • R^2 value of fitted concentration response curve • Hill slope coefficient of fitted concentration response curve • Signal to Noise Ratio

[1] = A549 cells, 72 hours exposure, Cell Counting Kit-8

| SMILES | IC50 (A549; [1]) | IC50 (SUV39H2) | IC50 (A549; A549, 72 h) |
| --- | --- | --- | --- |
| COc1cc(OC)c(-c2cn3ccc(N4CCN(c5nccc(N6CCOCC6)n5)CC4)cc3n2)cc1Cl [Example 363, 4-(2-(4-(2-(5-chloro-2,4-dimethoxyphenyl)imidazo[1,2-a]pyridin-7-yl)piperazin-1-yl)pyrimidin-4-yl)morpholine] | 490 nM | 26.5 nM | – |
| COc1cc(OC)c(-c2cn3ccc(N[C@H]4CC[C@H](Nc5ncccn5)CC4)cc3n2)cc1Cl [Example 318, (1r,4r)-N^1-(2-(5-chloro-2,4-dimethoxyphenyl)imidazo[1,2-a]pyridin-7-yl)-N^4-(pyrimidin-2-yl)cyclohexane-1,4-diamine hydrochloride] | 180 nM | 9.73 nM | – |
| COc1cc(OC)c(-c2cn3ccc(N[C@H]4CC[C@@H](NCc5ccc([N+](=O)[O-])cc5)CC4)cc3n2)cc1Cl [Example 411, cis-N^1-(2-(5-chloro-2,4-dimethoxyphenyl)imidazo[1,2-a]pyridin-7-yl)-N^4-(4-nitrobenzyl)cyclohexane-1,4-diamine] | 370 nM | 26.3 nM | – |
| COc1cc(OC)c(-c2cn3ccc(N[C@H]4CC[C@@H](NCc5cccc(F)c5)CC4)cc3n2)cc1Cl [Example 402, cis-N^1-(2-(5-chloro-2,4-dimethoxyphenyl)imidazo[1,2-a]pyridin-7-yl)-N^4-(3-fluorobenzyl)cyclohexane-1,4-diamine bis(2,2,2-trifluoroacetate)] | 740 nM | 18.7 nM | – |
| COc1cc(OC)c(-c2cn3ccc(N4CCN(c5cc(N6CCCC6)ncn5)CC4)cc3n2)cc1Cl [Example 355, 2-(5-chloro-2,4-dimethoxyphenyl)-7-(4-(6-(pyrrolidin-1-yl)pyrimidin-4-yl)piperazin-1-yl)imidazo[1,2-a]pyridine] | 670 nM | 38.8 nM | – |
| COCC(=O)N1CCN(c2ccn3cc(-c4cc(Cl)c(OC)cc4OC)nc3c2)CC1C (stereo not shown) [Example 310, 1-(4-(2-(5-chloro-2,4-dimethoxyphenyl)imidazo[1,2-a]pyridin-7-yl)-2-methylpiperazin-1-yl)-2-methoxyethanone] | 10000 nM | 1.78 nM | – |
| COc1cc(OC)c(-c2cn3ccc(N4CCCN(c5cncnc5)CC4)cc3n2)cc1Cl [Example 383, 2-(5-chloro-2,4-dimethoxyphenyl)-7-(4-(pyrimidin-5-yl)-1,4-diazepan-1-yl)imidazo[1,2-a]pyridine] | 880 nM | 13.8 nM | – |
| COc1cc(OC)c(-c2cn3ccc(N4CCC(Nc5ccncn5)CC4)cc3n2)cc1Cl [Example 374, N-(1-(2-(5-chloro-2,4-dimethoxyphenyl)imidazo[1,2-a]pyridin-7-yl)piperidin-4-yl)pyrimidin-4-amine] | 660 nM | 31.4 nM | – |
| COc1cc(OC)c(-c2cn3ccc(N4CCN(C(C)=O)CC4)cc3n2)cc1Cl [Example 307, 1-(4-(2-(5-chloro-2,4-dimethoxyphenyl)imidazo[1,2-a]pyridin-7-yl)piperazin-1-yl)ethanone] | 2200 nM | 2 nM | – |
| COc1cc(OC)c(-c2cn3ccc(N4CCN(c5nc(N)nc(N6CCOCC6)n5)CC4)cc3n2)cc1Cl [Example 379, 4-(4-(2-(5-chloro-2,4-dimethoxyphenyl)imidazo[1,2-a]pyridin-7-yl)piperazin-1-yl)-6-morpholino-1,3,5-triazin-2-amine] | 420 nM | 26.9 nM | – |
| COc1cc(OC)c(-c2cn3ccc(N[C@H]4CC[C@@H](NCc5cccc(C#N)c5)CC4)cc3n2)cc1Cl [Example 371, 3-(((cis-4-((2-(5-chloro-2,4-dimethoxyphenyl)imidazo[1,2-a]pyridin-7-yl)amino)cyclohexyl)amino)methyl)benzonitrile] | 690 nM | 16.1 nM | – |
| COc1cc(OC)c(-c2cn3ccc(NC4CCN(Cc5ccc([N+](=O)[O-])o5)CC4)cc3n2)cc1Cl [Example 343, 2-(5-chloro-2,4-dimethoxyphenyl)-N-(1-((5-nitrofuran-2-yl)methyl)piperidin-4-yl)imidazo[1,2-a]pyridin-7-amine] | 910 nM | 47.9 nM | – |
| COc1cc(OC)c(-c2cn3ccc(N[C@H]4CC[C@@H](NCC5CCN(C(=O)OC(C)(C)C)CC5)CC4)cc3n2)cc1Cl [Example 423, tert-butyl 4-(((cis-4-((2-(5-chloro-2,4-dimethoxyphenyl)imidazo[1,2-a]pyridin-7-yl)amino)cyclohexyl)amino)methyl)piperidine-1-carboxylate] | 590 nM | 26.9 nM | – |
| COc1cc(OC)c(-c2cn3ccc(NC4CCC(NCc5ccc(F)cc5)CC4)cc3n2)cc1Cl (stereo not shown) [Example 320, (1r,4r)-N^1-(2-(5-chloro-2,4-dimethoxyphenyl)imidazo[1,2-a]pyridin-7-yl)-N^4-(4-fluorobenzyl)cyclohexane-1,4-diamine] | 430 nM | 95 nM | – |
| COc1cc(OC)c(-c2cn3ccc(N4CCN(c5nccc(N(C)C)n5)CC4)cc3n2)cc1Cl [Example 356, 2-(4-(2-(5-chloro-2,4-dimethoxyphenyl)imidazo[1,2-a]pyridin-7-yl)piperazin-1-yl)-N,N-dimethylpyrimidin-4-amine] | 380 nM | 60.6 nM | – |
| COc1cc(OC)c(-c2cn3ccc(N4CCC(CNC(=O)OC(C)(C)C)C4)cc3n2)cc1Cl (stereo not shown) [Example 459, tert-butyl ((1-(2-(5-chloro-2,4-dimethoxyphenyl)imidazo[1,2-a]pyridin-7-yl)pyrrolidin-3-yl)methyl)carbamate] | 990 nM | 7.69 nM | – |
| COc1cc(OC)c(-c2cn3ccc(N[C@H]4CC[C@H](Nc5nccc(N6CCN(C)CC6)n5)CC4)cc3n2)cc1Cl [Example 398, (1r,4r)-N^1-(2-(5-chloro-2,4-dimethoxyphenyl)imidazo[1,2-a]pyridin-7-yl)-N^4-(4-(4-methylpiperazin-1-yl)pyrimidin-2-yl)cyclohexane-1,4-diamine] | 440 nM | 23.3 nM | – |
| COc1cc(OC)c(-c2cn3ccc(N[C@H]4C[C@H]5CC[C@@H](C4)N5CC4CCN(C(=O)OC(C)(C)C)CC4)cc3n2)cc1Cl [Example 447, tert-butyl 4-(((1R,3r,5S)-3-((2-(5-chloro-2,4-dimethoxyphenyl)imidazo[1,2-a]pyridin-7-yl)amino)-8-azabicyclo[3.2.1]octan-8-yl)methyl)piperidine-1-carboxylate] | 440 nM | 85.2 nM | – |
| CNC1CCN(c2ncc(N3CCN(c4ccn5cc(-c6cc(Cl)c(OC)cc6OC)nc5c4)CC3)cn2)C1 (stereo not shown) [Example 401, 1-(5-(4-(2-(5-chloro-2,4-dimethoxyphenyl)imidazo[1,2-a]pyridin-7-yl)piperazin-1-yl)pyrimidin-2-yl)-N-methylpyrrolidin-3-amine dihydrochloride] | – | 6.81 nM | 500 nM |
| COc1cc(OC)c(-c2cn3ccc(N[C@H]4CC[C@@H](NCc5ccccc5)CC4)cc3n2)cc1Cl [Example 325, cis-N^1-benzyl-N^4-(2-(5-chloro-2,4-dimethoxyphenyl)imidazo[1,2-a]pyridin-7-yl)cyclohexane-1,4-diamine] | 800 nM | 23.4 nM | – |
| COc1cc(OC)c(-c2cn3ccc(N4CCN(c5cnc(N6CCN(S(=O)(=O)C7CC7)CC6)nc5)CC4)cc3n2)cc1Cl [Example 369, 2-(5-chloro-2,4-dimethoxyphenyl)-7-(4-(2-(4-(cyclopropylsulfonyl)piperazin-1-yl)pyrimidin-5-yl)piperazin-1-yl)imidazo[1,2-a]pyridine 2,2,2-trifluoroacetate] | 630 nM | 57.2 nM | – |
| COc1cc(OC)c(-c2cn3ccc(N[C@H]4CC[C@@H](NCc5ccc(F)cc5)CC4)cc3n2)cc1Cl [Example 326, cis-N^1-(2-(5-chloro-2,4-dimethoxyphenyl)imidazo[1,2-a]pyridin-7-yl)-N^4-(4-fluorobenzyl)cyclohexane-1,4-diamine] | 660 nM | 20.3 nM | – |
| CNC1CCCN(c2ncc(N3CCN(c4ccn5cc(-c6cc(Cl)c(OC)cc6OC)nc5c4)CC3)cn2)C1 (stereo not shown) [Example 428, 1-(5-(4-(2-(5-chloro-2,4-dimethoxyphenyl)imidazo[1,2-a]pyridin-7-yl)piperazin-1-yl)pyrimidin-2-yl)-N-methylpiperidin-3-amine] | 770 nM | 14.3 nM | – |
| COc1cc(OC)c(-c2cn3ccc(N[C@H]4CC[C@H](NCc5cccc(C#N)c5)CC4)cc3n2)cc1Cl [Example 397, 3-((((1r,4r)-4-((2-(5-chloro-2,4-dimethoxyphenyl)imidazo[1,2-a]pyridin-7-yl)amino)cyclohexyl)amino)methyl)benzonitrile] | 700 nM | 64.6 nM | – |
| COc1cc(OC)c(-c2cn3ccc(N4CCN(c5cnc(N6CCOCC6)nc5)CC4)cc3n2)cc1Cl [Example 335, 4-(5-(4-(2-(5-chloro-2,4-dimethoxyphenyl)imidazo[1,2-a]pyridin-7-yl)piperazin-1-yl)pyrimidin-2-yl)morpholine] | 690 nM | 68.5 nM | – |
| COc1cc(OC)c(-c2cn3ccc(N[C@H]4CC[C@H](NCc5ccccc5O)CC4)cc3n2)cc1Cl [Example 420, 2-((((1r,4r)-4-((2-(5-chloro-2,4-dimethoxyphenyl)imidazo[1,2-a]pyridin-7-yl)amino)cyclohexyl)amino)methyl)phenol] | 720 nM | 64.6 nM | – |
